The test system of the assay is Meloidogyne incognita. The assay is described as follows: Meloidogyne test (MELGIN spray treatment). In kind it is in vivo. To be noted: 20 ppm; sand with egg-larvae suspension and lettuce seeds; 100 % = no galls found. An excerpt: Meloidogyne-Test (MELGIN Spritzbehandlung)
Zur Herstellung einer zweckmäßigen Wirkstoffzubereitung vermischt man 1 Gewichtsteil Wirkstoff mit der angegebenen Menge Lösungsmittel und verdünnt das Konzentrat mit Wasser auf die gewünschte Konzentration.
Gefäße werden mit Sand, Wirkstofflösung, Meloidogyne incognita-Ei-Larven-Suspension und Salatsamen gefüllt. Die Salatsamen keimen und die Pflänzchen entwickeln sich. An den Wurzeln entwickeln sich die Gallen.
Nach der gewünschten Zeit wird die nematizide Wirkung an Hand der Gallenbildung in % bestimmt. Dabei bedeutet 100 %, dass keine Gallen gefunden wurden; 0 % bedeutet, dass die Zahl der Gallen an den behandelten Pflanzen der der unbehandelten Kontrolle entspricht.
Bei diesem Test zeigen z. B. die folgenden Verbindungen der Herstellungsbeispiele eine Wirkung von ≥ 80 % bei einer Aufwandmenge von 20 ppm: Beispiel Nr. I-1, I-2

Consider two compounds from patent EP2065370A1, “2-cyanobenzene sulfonamides as pesticides” (Bayer CropScience AG, priority 2007, dated 2009).

Structures are written as SMILES. A value given as a limit tells only on which side of the number the result lay.

On to `CN(Cc1ccccn1)S(=O)(=O)c1cccc(F)c1C#N` [I-2], for which the “nematizide Wirkung an Hand der Gallenbildung” value is not below 80%.

As for `CN(Cc1ccccn1)S(=O)(=O)c1ccccc1C#N` [I-1, 2-Cyano-N-methyl-N-(pyridin-2-ylmethyl)benzolsulfonamid], the “nematizide Wirkung an Hand der Gallenbildung” value was not below 80%.
